Read-outs that look alike come from different tables or passages of the source.
What was measured:
Human FXIa = target: T1, Human FXIa (Homo sapiens, UniProt P03951); assay: FXIa enzymatic activity (chromogenic S-2366; fluorescent assay for high potency); type: biochemical
T1 construct: purchased Enzyme Research Labs or Haematologic Technologies Inc
Protocol: Human FXIa activity (Enzyme Research Labs or Haematologic Technologies Inc.) was measured at room temperature in 96 well microtiter plates. The enzyme was incubated with drug for 3 minutes at an enzyme concentration of 0.5 nM in 145 mM NaCl, 5 mM KCl, 1 mg/mL PEG 8000,30 mM HEPES (pH 7.4). After the three minute incubation, 100 μM substrate, S-2366, (L-Pyroglut-Pro-Arg-pNA, Diapharma Group, Inc.) was added and the enzyme velocity was measured using a Molecular Devices Spectro Max Plus (405 nm wavelength) in kinetic mode and analyzed using SOFTmax Pro (ver 3.0) software. For routine compound evaluation, the fraction of control activity (FCA) was plotted as a function of the inhibitor concentration (I), and the curve was fit to the equation FCA /(1+[I]/IC50) to determine the IC50.
A fluorescent assay was performed under similar conditions to evaluate FXIa activity of compounds with high potency (IC50<10 nM). A different substrate (D-Ile-Pro-Arg-AFC.2TFA) and a different concentration of enzyme (0.043 nM) was used. The enzyme velocity was measured using a Molecular Devices fMax fluorescent plate reader (400 nm excitation, 505 nm emission).

Human TF:FVIIa = target: T2, Human TF:FVIIa (Homo sapiens, UniProt P08709); assay: Selectivity assay TF:FVIIa; type: biochemical; conditions: Table 3
T2 construct: purchased Enzyme Research Labs (FVIIa); Dade (Innovin, tissue factor)
T2 sequence (P08709 213-466 limits assumed): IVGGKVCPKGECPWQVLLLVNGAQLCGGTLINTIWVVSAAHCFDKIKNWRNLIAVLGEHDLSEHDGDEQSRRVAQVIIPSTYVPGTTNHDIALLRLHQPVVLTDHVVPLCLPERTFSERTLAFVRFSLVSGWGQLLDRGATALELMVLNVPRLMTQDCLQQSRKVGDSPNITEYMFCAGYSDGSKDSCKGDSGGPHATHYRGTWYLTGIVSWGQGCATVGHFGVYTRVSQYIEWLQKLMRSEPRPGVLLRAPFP
T2 sequence (P08709 61-212 partner limits assumed): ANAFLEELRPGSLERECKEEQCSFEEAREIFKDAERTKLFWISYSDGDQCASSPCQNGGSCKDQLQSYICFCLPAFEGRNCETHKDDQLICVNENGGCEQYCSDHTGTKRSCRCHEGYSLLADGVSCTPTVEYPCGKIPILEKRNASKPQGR
T2 sequence (P13726 33-295 partner): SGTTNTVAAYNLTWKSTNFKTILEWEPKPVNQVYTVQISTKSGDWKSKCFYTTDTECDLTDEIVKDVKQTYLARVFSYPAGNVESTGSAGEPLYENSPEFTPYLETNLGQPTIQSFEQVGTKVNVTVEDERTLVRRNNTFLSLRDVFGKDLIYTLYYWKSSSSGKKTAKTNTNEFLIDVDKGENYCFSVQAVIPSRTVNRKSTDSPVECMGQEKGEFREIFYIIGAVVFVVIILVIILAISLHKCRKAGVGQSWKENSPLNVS
Protocol: Human TF:FVIIa activity was measured using isolated human FVIIa (Enzyme Research Labs) in the presence of recombinant human tissue Factor (Dade Innovin) in a buffer containing 20 mM HEPES, 150 mM NaCl, 5mM CaCl2, 1 mM CHAPS and 1 mg/mL PEG 6000 (pH to 7.4).

Plasmin = target: T3, Plasmin (Homo sapiens, UniProt P00747); assay: Selectivity assay plasmin; type: biochemical; conditions: Table 3
T3 construct: Plasmin (Kabi Vitrum) was measured as for thrombin; purchased Kabi Vitrum
T3 sequence (P00747 581-810 limits assumed): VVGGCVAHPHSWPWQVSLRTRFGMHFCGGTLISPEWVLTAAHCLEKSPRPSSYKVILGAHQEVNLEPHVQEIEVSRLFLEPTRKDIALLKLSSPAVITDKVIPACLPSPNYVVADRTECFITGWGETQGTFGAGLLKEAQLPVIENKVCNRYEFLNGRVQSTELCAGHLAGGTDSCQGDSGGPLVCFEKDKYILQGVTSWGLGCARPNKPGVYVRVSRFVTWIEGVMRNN
T3 sequence (P00747 97-580 partner limits assumed): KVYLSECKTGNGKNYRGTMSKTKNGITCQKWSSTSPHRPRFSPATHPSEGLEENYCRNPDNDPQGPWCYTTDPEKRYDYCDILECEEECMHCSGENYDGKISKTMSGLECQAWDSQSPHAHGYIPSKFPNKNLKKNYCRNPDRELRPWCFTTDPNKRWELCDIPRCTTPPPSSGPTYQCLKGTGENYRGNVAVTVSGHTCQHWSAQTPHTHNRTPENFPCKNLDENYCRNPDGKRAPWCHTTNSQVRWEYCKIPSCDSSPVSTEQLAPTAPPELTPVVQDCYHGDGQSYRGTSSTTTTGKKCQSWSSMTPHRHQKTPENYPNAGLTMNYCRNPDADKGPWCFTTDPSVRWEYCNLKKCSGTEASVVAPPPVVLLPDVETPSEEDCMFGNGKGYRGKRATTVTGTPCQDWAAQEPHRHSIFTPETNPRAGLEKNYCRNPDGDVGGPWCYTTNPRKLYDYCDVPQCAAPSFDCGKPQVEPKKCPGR

[1] = target: T4, Recombinant tissue plasminogen activator (Homo sapiens, UniProt P00750); assay: Selectivity assay tissue plasminogen activator; type: biochemical; conditions: Table 3
T4 construct: purchased Genentech
T4 sequence (P00750 36-562): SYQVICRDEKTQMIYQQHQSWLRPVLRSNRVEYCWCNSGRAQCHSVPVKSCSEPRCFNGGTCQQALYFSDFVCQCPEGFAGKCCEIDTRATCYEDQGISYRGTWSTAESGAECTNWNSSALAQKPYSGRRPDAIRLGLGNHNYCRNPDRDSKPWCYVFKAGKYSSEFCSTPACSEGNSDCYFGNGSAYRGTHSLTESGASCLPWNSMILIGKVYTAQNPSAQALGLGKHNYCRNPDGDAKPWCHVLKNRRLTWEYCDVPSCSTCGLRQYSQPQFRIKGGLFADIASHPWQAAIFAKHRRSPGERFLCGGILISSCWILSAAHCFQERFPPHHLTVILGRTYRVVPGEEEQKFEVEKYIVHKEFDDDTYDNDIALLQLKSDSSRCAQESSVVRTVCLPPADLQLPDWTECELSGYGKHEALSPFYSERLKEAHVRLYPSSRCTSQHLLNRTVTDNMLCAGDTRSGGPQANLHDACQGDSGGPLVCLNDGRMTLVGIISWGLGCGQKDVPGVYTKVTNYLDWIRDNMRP

human plasma = assay: PT clotting time, human plasma; type: biochemical; conditions: highest concentration tested 100 μM
Protocol: (§1) The term “PT” time as used herein refers to prothrombin times which is intended to refer to the time elapsed between formation of an assay solution and detection of clot formation in the assay solution with use of a PT assay, i.e., an assay employing thromboplastin reagents that are used for evaluating blood coagulation associated with the extrinsic pathway.
(§2) PT and APTT clotting times were determined as described in Balasubramanian et al., J. Med. Chem., Vol. 36 (1993), at pp. 300-03, incorporated herein by reference. The whole blood aggregation response of rat platelets to collagen was determined using the impedance procedure for a Model 560-CA Chrono-Log aggregometer (Havertown, Pa.).

rat plasma [2] = assay: PT clotting time, rat plasma; type: biochemical; conditions: up to 100 μM
Protocol: as §1, §2

rat plasma [3] = assay: APTT clotting time, rat plasma; type: biochemical
From the text: The term “APTT” as used herein means “activated partial thromboplastin times” which is intended to refer to the time elapsed between the formation of an assay solution and the detection of clot formation in the assay solution with use of an APTT assay, i.e., an assay employing an intrinsic pathway activator, such as micronized silica, and a phospholipid component of a thromboplastin reagent (without tissue factor protein) for evaluating coagulation associated with the intrinsic pathway.
as §2

[4] = system: mesenteric artery bleeding time; assay: Mesenteric artery bleeding time (MABT) model; type: in vivo; conditions: rat, i.v. 12+12 and 24+24 mg/kg+mg/kg/hr, pre- vs post-treatment, FIG. 6
Protocol: Experimental Bleeding Time Two models of bleeding time were performed, namely, a renal cortex bleeding model (using template incision of the renal cortex), and a mesenteric artery bleeding model (using severance of small mesenteric arteries).
In the mesenteric artery bleeding time (MABT) model, the abdomen was opened via a midline incision and the small intestine was exteriorized. The jejunum was exposed, held in place with clamps and superfused with Ringer's solution maintained at 37° C. Small arteries that branch perpendicular to the mesenteric artery and course over the surface of the jejunum were observed through an SZH10 stereomicroscope (Olympus Corp., Lake Success, N.Y.). These vessels were punctured with a 30-gauge hypodermic needle and the time in sec from puncturing until bleeding stopped was recorded. Bleeding times were determined in 3-5 arteries before administration of test article and in 3-5 arteries 20 min after the start of test article infusion. […]
Statistical Analysis In the venous and arterial thrombosis procedures, treatment effects on thrombus weight, baseline blood flow, and average blood flow during thrombosis were determined by analysis of variance with Dunnett's test for comparison to the vehicle group. […] Treatment effects on bleeding times were determined by analysis of variance with Dunnett's test for comparison to the vehicle group. […]

T1 sequence (P03951 388-625 limits assumed): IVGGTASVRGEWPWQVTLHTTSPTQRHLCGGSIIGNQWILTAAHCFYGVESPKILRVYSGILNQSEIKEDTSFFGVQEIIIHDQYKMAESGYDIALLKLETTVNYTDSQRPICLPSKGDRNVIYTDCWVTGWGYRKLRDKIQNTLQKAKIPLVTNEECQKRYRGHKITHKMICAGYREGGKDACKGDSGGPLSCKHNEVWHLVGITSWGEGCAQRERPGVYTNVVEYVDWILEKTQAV
T1 sequence (P03951 19-387 partner limits assumed): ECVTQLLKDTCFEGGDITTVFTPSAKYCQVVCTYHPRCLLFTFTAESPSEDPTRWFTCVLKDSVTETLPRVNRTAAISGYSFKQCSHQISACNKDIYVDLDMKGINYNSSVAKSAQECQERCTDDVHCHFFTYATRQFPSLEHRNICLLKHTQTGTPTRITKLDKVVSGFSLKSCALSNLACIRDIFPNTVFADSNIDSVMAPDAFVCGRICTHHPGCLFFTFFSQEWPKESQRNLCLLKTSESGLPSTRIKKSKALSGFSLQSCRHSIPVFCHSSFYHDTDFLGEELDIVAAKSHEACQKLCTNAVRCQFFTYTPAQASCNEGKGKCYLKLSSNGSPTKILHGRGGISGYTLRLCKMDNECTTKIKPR

IC50 (Human FXIa; Table 1, Factor XIa, approximate, read-out: IC50(≅)): ~0.0028 µM
IC50 (Human FXIa; Table 3, read-out: IC50 (μM) FXIa): 0.0028 µM
times more active than the FXa inhibitor for inhibiting Factor XIa (Human FXIa; from Table 3 IC50 values): more than 10,000 times
times more active than the thrombin inhibitor (compound 16A) for inhibiting Factor XIa (Human FXIa; from Table 3 IC50 values): greater than 2,000 times
IC50 (Human TF:FVIIa): 0.486 µM
IC50 (Plasmin): 1.7 µM
IC50 [1]: > 33 µM
effect on mesenteric artery bleeding times [4]: no effect
SMILES: CC(C)(C)NC(=O)N1CCN(C(=O)N2C(=O)[C@H](CCCNC(=N)N)[C@H]2C(=O)O)CC1 [Example 4]
Clotting time PT (human), concentration that doubles clotting time (human plasma): >100 µM
Clotting time PT (rat), concentration that doubles clotting time (rat plasma [2]): >100 µM
Clotting time APTT (rat), concentration that doubles clotting time (rat plasma [3]): 2.1 µM

Source: patent US20040180855A1, “Methods of treating thrombosis with reduced risk of increased bleeding times” (priority 2003, published 2004)
